Experimental data: the kinase profiling compilation of Christmann-Franck et al. (2016)

Legend:
Test in all cases: KINOMEscan competition binding
Conditions in all cases: compound 10.0 µM
[1] = molecular target: MAPK8 (human) (UniProt P45983)
[2] = molecular target: CRK2 (P.falciparum) (UniProt P61075)
[3] = molecular target: CAMK2D (human) (UniProt Q13557)
[4] = molecular target: MYO3B (human) (UniProt Q8WXR4)
[5] = molecular target: PRKACA (human) (UniProt P17612)
[6] = molecular target: HIPK2 (human) (UniProt Q9H2X6)
[7] = molecular target: SRMS (human) (UniProt Q9H3Y6)
[8] = molecular target: PIK3C2G (human) (UniProt O75747)
PIK3C2G (human), sequence (O75747 whole entry, looked up): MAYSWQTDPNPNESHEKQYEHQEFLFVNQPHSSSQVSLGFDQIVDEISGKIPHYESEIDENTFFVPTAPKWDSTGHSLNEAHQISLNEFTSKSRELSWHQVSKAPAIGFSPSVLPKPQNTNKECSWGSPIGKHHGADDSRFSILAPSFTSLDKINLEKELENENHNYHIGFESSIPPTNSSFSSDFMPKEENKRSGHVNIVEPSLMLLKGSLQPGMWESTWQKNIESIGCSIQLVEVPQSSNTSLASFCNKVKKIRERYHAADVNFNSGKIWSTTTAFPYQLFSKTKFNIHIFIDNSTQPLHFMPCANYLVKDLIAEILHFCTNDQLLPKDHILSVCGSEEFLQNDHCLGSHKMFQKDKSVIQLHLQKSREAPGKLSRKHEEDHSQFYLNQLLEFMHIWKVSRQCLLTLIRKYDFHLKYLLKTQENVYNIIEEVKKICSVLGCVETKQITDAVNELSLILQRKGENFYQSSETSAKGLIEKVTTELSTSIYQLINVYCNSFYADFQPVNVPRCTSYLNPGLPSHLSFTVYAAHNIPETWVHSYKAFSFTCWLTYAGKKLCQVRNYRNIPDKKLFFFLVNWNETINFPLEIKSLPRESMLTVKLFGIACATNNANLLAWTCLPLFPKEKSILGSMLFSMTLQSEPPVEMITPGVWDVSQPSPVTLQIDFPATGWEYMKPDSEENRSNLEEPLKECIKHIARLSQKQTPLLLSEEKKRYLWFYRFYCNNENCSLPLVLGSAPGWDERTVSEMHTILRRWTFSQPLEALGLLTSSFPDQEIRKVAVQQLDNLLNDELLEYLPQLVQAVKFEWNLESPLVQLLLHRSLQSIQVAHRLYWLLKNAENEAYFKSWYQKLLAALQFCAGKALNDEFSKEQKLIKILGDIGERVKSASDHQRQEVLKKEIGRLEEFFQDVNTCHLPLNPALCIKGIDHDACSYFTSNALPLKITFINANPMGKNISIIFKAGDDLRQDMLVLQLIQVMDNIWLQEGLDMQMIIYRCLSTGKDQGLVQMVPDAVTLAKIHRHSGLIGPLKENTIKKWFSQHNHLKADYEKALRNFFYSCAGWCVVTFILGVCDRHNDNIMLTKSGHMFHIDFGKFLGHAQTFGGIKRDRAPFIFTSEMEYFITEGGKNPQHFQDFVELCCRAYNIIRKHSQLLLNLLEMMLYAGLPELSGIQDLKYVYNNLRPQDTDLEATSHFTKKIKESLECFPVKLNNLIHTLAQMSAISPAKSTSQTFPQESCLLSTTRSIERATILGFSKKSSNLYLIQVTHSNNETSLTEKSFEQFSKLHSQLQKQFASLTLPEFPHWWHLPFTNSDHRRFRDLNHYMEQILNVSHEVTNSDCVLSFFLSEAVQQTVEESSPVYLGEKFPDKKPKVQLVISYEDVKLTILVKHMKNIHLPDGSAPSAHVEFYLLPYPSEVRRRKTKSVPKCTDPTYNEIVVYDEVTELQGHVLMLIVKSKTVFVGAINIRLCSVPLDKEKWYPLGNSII

[9] = molecular target: RIOK2 (human) (UniProt Q9BVS4)
[10] = molecular target: ABL2 (human) (UniProt P42684)
[11] = molecular target: AXL (human) (UniProt P30530)
[12] = molecular target: CAMKK1 (human) (UniProt Q8N5S9)
[13] = molecular target: MYLK4 (human) (UniProt Q86YV6)
MYLK4 (human), sequence (Q86YV6 whole entry, looked up): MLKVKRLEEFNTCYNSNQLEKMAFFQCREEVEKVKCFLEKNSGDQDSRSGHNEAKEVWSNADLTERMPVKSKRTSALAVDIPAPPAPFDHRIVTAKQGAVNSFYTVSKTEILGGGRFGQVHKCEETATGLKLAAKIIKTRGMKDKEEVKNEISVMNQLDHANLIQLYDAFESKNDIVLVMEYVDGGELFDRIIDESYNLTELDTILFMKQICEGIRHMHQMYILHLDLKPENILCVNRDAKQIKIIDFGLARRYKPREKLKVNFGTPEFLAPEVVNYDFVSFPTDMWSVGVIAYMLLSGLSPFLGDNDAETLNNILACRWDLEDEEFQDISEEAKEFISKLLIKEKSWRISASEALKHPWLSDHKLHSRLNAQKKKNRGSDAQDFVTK

[14] = molecular target: RPS6KA6 KD2 (human) (UniProt Q9UK32)
RPS6KA6 KD2 (human), sequence (Q9UK32 whole entry, looked up): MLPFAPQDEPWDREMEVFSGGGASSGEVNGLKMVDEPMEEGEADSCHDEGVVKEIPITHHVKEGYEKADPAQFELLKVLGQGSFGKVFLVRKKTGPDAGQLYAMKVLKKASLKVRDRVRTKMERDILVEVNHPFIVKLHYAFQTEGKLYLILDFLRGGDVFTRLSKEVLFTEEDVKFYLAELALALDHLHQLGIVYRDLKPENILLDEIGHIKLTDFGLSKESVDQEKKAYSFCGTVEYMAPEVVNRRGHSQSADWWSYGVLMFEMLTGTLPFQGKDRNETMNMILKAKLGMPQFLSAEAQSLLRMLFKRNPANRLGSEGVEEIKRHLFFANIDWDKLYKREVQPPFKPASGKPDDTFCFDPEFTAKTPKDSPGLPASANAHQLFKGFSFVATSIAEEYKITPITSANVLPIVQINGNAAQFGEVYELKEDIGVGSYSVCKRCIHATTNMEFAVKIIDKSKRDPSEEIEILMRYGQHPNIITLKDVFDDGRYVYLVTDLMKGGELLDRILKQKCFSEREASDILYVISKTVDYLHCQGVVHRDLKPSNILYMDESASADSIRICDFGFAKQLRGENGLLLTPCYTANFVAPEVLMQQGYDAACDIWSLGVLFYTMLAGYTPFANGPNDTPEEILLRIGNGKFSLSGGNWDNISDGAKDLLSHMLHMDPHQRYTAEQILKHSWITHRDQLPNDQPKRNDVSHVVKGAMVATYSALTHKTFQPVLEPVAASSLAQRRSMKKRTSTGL

[15] = molecular target: EPHA4 (human) (UniProt P54764)
EPHA4 (human), sequence (P54764 whole entry, looked up): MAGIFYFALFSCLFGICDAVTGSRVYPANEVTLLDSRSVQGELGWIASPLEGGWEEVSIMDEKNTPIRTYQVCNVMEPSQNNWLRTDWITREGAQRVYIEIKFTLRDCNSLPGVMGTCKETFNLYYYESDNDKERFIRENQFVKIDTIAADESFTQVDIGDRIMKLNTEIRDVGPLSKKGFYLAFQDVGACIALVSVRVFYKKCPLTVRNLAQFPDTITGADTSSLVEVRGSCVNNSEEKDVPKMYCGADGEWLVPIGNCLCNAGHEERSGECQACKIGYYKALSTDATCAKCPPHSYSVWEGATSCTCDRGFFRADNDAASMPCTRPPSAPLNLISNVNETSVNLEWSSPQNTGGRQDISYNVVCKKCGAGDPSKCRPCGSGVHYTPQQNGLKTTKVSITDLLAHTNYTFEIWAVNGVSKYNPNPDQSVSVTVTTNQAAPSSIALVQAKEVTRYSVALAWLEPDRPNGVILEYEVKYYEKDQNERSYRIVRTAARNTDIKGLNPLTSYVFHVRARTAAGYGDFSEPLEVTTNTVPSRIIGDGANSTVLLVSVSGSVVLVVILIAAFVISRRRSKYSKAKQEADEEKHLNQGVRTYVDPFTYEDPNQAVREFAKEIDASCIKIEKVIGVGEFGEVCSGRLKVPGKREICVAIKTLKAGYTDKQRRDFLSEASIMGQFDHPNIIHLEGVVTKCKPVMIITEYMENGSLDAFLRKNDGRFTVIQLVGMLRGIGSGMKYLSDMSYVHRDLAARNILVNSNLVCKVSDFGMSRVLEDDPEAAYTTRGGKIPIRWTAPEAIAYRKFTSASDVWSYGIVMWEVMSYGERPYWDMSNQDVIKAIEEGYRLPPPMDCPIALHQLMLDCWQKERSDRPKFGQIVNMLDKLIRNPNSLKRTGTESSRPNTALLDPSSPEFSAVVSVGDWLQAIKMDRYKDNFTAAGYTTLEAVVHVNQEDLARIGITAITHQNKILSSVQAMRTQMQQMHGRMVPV

[16] = molecular target: TAOK1 (human) (UniProt Q7L7X3)
[17] = molecular target: SIK1 (human) (UniProt P57059)
[18] = molecular target: MAP3K1 (human) (UniProt Q13233)
[19] = molecular target: CAMK4 (human) (UniProt Q16566)
[20] = molecular target: FGFR4 (human) (UniProt P22455)
[21] = molecular target: DAPK3 (human) (UniProt O43293)
[22] = molecular target: TLK2 (human) (UniProt Q86UE8)
[23] = molecular target: EPHA2 (human) (UniProt P29317)
[24] = molecular target: ERN1 (human) (UniProt O75460)
[25] = molecular target: MAP3K15 (human) (UniProt Q6ZN16)
[26] = molecular target: PAK1 (human) (UniProt Q13153)
[27] = molecular target: IRAK1 (human) (UniProt P51617)
[28] = molecular target: SBK1 (human) (UniProt Q52WX2)
[29] = molecular target: CDK2 (human) (UniProt P24941)
[30] = molecular target: MAP3K9 (human) (UniProt P80192)
[31] = molecular target: MARK3 (human) (UniProt P27448)
[32] = molecular target: PRKAA2 (human) (UniProt P54646)
[33] = molecular target: PIP4K2C (human) (UniProt Q8TBX8)
[34] = molecular target: PTK2B (human) (UniProt Q14289)
[35] = molecular target: CAMK1G (human) (UniProt Q96NX5)
[36] = molecular target: PRKACB (human) (UniProt P22694)
[37] = molecular target: NLK (human) (UniProt Q9UBE8)
NLK (human), sequence (Q9UBE8 whole entry, looked up): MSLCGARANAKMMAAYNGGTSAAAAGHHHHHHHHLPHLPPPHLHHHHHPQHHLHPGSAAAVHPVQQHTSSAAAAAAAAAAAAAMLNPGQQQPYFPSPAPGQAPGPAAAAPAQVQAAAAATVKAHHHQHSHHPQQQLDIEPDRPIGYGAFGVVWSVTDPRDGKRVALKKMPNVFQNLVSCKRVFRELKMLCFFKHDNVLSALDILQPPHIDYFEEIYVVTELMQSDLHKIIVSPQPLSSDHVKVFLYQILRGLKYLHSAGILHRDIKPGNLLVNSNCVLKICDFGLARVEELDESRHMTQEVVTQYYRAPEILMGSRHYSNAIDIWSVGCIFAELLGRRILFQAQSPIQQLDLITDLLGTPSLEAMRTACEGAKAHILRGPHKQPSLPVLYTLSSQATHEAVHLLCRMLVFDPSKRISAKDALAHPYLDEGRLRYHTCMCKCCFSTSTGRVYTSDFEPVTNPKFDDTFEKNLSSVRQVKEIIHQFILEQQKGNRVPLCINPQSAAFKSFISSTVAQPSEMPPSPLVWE

[38] = molecular target: TNIK (human) (UniProt Q9UKE5)
[39] = molecular target: RIOK3 (human) (UniProt O14730)
[40] = molecular target: CDK16 (human) (UniProt Q00536)

CAMK2D (human), sequence (Q13557 whole entry, looked up): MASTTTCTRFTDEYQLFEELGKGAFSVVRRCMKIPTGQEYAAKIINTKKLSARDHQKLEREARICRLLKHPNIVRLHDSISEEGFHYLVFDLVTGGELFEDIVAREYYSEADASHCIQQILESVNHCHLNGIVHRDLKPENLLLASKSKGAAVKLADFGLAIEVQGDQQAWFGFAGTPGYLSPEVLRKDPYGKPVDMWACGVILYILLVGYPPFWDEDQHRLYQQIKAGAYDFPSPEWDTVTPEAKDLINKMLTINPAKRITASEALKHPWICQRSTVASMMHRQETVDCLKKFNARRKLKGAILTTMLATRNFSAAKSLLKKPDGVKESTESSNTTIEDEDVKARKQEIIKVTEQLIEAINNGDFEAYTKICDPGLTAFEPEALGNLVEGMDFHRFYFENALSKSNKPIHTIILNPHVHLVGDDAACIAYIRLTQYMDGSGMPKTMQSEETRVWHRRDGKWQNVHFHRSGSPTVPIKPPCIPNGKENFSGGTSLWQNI
CRK2 (P.falciparum), sequence (P61075 whole entry, looked up): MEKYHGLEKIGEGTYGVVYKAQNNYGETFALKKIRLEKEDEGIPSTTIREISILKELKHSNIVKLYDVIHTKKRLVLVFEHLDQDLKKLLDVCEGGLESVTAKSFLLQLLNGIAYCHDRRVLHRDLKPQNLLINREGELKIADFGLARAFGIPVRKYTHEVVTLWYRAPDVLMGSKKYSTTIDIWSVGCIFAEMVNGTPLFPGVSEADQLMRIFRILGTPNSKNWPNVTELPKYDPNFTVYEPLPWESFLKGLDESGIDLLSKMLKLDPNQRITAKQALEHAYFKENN

## O=c1cc(N2CCOCC2)oc2c(-c3cccc4c3sc3ccccc34)cccc12
[1]
  kinase still bound, per cent of control: 88%
[2]
  kinase still bound, per cent of control: 100%
[3]
  kinase still bound, per cent of control: 80%
[4]
  kinase still bound, per cent of control: 100%
[5]
  kinase still bound, per cent of control: 87%
[6]
  kinase still bound, per cent of control: 100%
[7]
  kinase still bound, per cent of control: 62%
[8]
  kinase still bound, per cent of control: 16%
[9]
  kinase still bound, per cent of control: 22%
[10]
  kinase still bound, per cent of control: 92%
[11]
  kinase still bound, per cent of control: 100%
[12]
  kinase still bound, per cent of control: 85%
[13]
  kinase still bound, per cent of control: 100%
[14]
  kinase still bound, per cent of control: 79%
[15]
  kinase still bound, per cent of control: 82%
[16]
  kinase still bound, per cent of control: 100%
[17]
  kinase still bound, per cent of control: 100%
[18]
  kinase still bound, per cent of control: 100%
[19]
  kinase still bound, per cent of control: 100%
[20]
  kinase still bound, per cent of control: 99%
[21]
  kinase still bound, per cent of control: 92%
[22]
  kinase still bound, per cent of control: 80%
[23]
  kinase still bound, per cent of control: 72%
[24]
  kinase still bound, per cent of control: 93%
[25]
  kinase still bound, per cent of control: 100%
[26]
  kinase still bound, per cent of control: 71%
[27]
  kinase still bound, per cent of control: 96%
[28]
  kinase still bound, per cent of control: 100%
[29]
  kinase still bound, per cent of control: 75%
[30]
  kinase still bound, per cent of control: 100%
[31]
  kinase still bound, per cent of control: 99%
[32]
  kinase still bound, per cent of control: 100%
[33]
  kinase still bound, per cent of control: 89%
[34]
  kinase still bound, per cent of control: 94%
[35]
  kinase still bound, per cent of control: 85%
[36]
  kinase still bound, per cent of control: 92%
[37]
  kinase still bound, per cent of control: 88%
[38]
  kinase still bound, per cent of control: 100%
[39]
  kinase still bound, per cent of control: 100%
[40]
  kinase still bound, per cent of control: 97%

## CN(C)C/C=C/C(=O)Nc1ccc(C(=O)Nc2cccc(Nc3nccc(-c4cccnc4)n3)c2)cc1
[1]
  kinase still bound, per cent of control: 1.2%
[2]
  kinase still bound, per cent of control: 100%
[3]
  kinase still bound, per cent of control: 67%
[4]
  kinase still bound, per cent of control: 100%
[5]
  kinase still bound, per cent of control: 100%
[6]
  kinase still bound, per cent of control: 2.6%
[7]
  kinase still bound, per cent of control: 85%
[8]
  kinase still bound, per cent of control: 100%
[9]
  kinase still bound, per cent of control: 9.6%
[10]
  kinase still bound, per cent of control: 100%
[11]
  kinase still bound, per cent of control: 80%
[12]
  kinase still bound, per cent of control: 52%
[13]
  kinase still bound, per cent of control: 36%
[14]
  kinase still bound, per cent of control: 97%
[15]
  kinase still bound, per cent of control: 100%
[16]
  kinase still bound, per cent of control: 28%
[17]
  kinase still bound, per cent of control: 100%
[18]
  kinase still bound, per cent of control: 100%
[19]
  kinase still bound, per cent of control: 100%
[20]
  kinase still bound, per cent of control: 100%
[21]
  kinase still bound, per cent of control: 62%
[22]
  kinase still bound, per cent of control: 100%
[23]
  kinase still bound, per cent of control: 97%
[24]
  kinase still bound, per cent of control: 70%
[25]
  kinase still bound, per cent of control: 56%
[26]
  kinase still bound, per cent of control: 90%
[27]
  kinase still bound, per cent of control: 0.9%
[28]
  kinase still bound, per cent of control: 100%
[29]
  kinase still bound, per cent of control: 100%
[30]
  kinase still bound, per cent of control: 78%
[31]
  kinase still bound, per cent of control: 100%
[32]
  kinase still bound, per cent of control: 95%
[33]
  kinase still bound, per cent of control: 0.8%
[34]
  kinase still bound, per cent of control: 100%
[35]
  kinase still bound, per cent of control: 64%
[36]
  kinase still bound, per cent of control: 100%
[37]
  kinase still bound, per cent of control: 82%
[38]
  kinase still bound, per cent of control: 36%
[39]
  kinase still bound, per cent of control: 13%
[40]
  kinase still bound, per cent of control: 91%

## C=CC(=O)Nc1cc(-n2c(=O)ccc3cnc4ccc(-c5cn[nH]c5)cc4c32)ccc1C
[1]
  kinase still bound, per cent of control: 1.9%
[2]
  kinase still bound, per cent of control: 100%
[3]
  kinase still bound, per cent of control: 36%
[4]
  kinase still bound, per cent of control: 100%
[5]
  kinase still bound, per cent of control: 100%
[6]
  kinase still bound, per cent of control: 48%
[7]
  kinase still bound, per cent of control: 75%
[8]
  kinase still bound, per cent of control: 5.9%
[9]
  kinase still bound, per cent of control: 12%
[10]
  kinase still bound, per cent of control: 86%
[11]
  kinase still bound, per cent of control: 100%
[12]
  kinase still bound, per cent of control: 59%
[13]
  kinase still bound, per cent of control: 88%
[14]
  kinase still bound, per cent of control: 67%
[15]
  kinase still bound, per cent of control: 97%
[16]
  kinase still bound, per cent of control: 22%
[17]
  kinase still bound, per cent of control: 77%
[18]
  kinase still bound, per cent of control: 97%
[19]
  kinase still bound, per cent of control: 100%
[20]
  kinase still bound, per cent of control: 100%
[21]
  kinase still bound, per cent of control: 61%
[22]
  kinase still bound, per cent of control: 100%
[23]
  kinase still bound, per cent of control: 85%
[24]
  kinase still bound, per cent of control: 50%
[25]
  kinase still bound, per cent of control: 56%
[26]
  kinase still bound, per cent of control: 100%
[27]
  kinase still bound, per cent of control: 41%
[28]
  kinase still bound, per cent of control: 90%
[29]
  kinase still bound, per cent of control: 84%
[30]
  kinase still bound, per cent of control: 86%
[31]
  kinase still bound, per cent of control: 100%
[32]
  kinase still bound, per cent of control: 78%
[33]
  kinase still bound, per cent of control: 2.7%
[34]
  kinase still bound, per cent of control: 96%
[35]
  kinase still bound, per cent of control: 79%
[36]
  kinase still bound, per cent of control: 100%
[37]
  kinase still bound, per cent of control: 63%
[38]
  kinase still bound, per cent of control: 47%
[39]
  kinase still bound, per cent of control: 31%
[40]
  kinase still bound, per cent of control: 97%
